Assay results from patent US10407381B2 (THE BOARD OF TRUSTEES OF THE UNIVERSITY OF ILLINOIS, priority 2015, dated 2019).
Like-named read-outs stand apart in the source and are kept apart here.

Tests used:
5-HT2B = 5-HT2B (Homo sapiens, UniProt P41595); assay: Calcium flux (FLIPR) assay, human 5-HT2B stably expressed in HEK-293 (Flp-In-293) cells; settings: for Emax, % 5-HT 5-HT2B: normalized to 5-HT
5-HT2A = 5-HT2A (Homo sapiens, UniProt P28223); assay: Calcium flux (FLIPR) assay, human 5-HT2A stably expressed in HEK-293 (Flp-In-293) cells; settings: for Emax, % 5-HT 5-HT2A: normalized to 5-HT
human 5-HT2C-INI = target: T1, human 5-HT2C-INI (Homo sapiens, UniProt P28335); assay: Calcium flux (FLIPR) assay, human 5-HT2C-INI stably expressed in HEK-293 (Flp-In-293) cells; settings: human 5-HT2C-INI in HEK-293 cells, FLIPR; for Emax, % 5-HT 5-HT2C: normalized to 5-HT; for EC50: NA = no activity at 10 μM
T1 sequence (P28335 33-458): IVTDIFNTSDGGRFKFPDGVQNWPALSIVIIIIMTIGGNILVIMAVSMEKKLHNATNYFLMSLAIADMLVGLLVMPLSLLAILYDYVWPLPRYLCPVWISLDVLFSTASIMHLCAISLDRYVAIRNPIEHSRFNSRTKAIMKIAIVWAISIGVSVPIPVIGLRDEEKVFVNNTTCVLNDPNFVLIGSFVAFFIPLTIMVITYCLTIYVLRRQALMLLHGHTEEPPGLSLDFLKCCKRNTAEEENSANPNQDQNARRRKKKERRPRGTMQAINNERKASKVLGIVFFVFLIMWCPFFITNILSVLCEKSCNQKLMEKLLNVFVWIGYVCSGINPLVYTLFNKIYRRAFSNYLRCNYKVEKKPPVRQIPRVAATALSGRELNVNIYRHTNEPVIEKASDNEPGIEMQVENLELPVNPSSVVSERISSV

[1] = read-out: EC50, nM 5-HT2B, human 5-HT2B in HEK-293 cells, NA = no activity at 10 μM
[2] = human 5-HT2A in HEK-293 cells, FLIPR
[3] = read-out: EC50, nM 5-HT2A, human 5-HT2A in HEK-293 cells, FLIPR, NA = no activity at 10 μM
[4] = EC50, nM 5-HT2B, human 5-HT2B in HEK-293 cells, NA = no activity at 10 μM
[5] = EC50, nM 5-HT2A, human 5-HT2A in HEK-293 cells, FLIPR, NA = no activity at 10 μM

5-HT2B, sequence (P41595 whole entry): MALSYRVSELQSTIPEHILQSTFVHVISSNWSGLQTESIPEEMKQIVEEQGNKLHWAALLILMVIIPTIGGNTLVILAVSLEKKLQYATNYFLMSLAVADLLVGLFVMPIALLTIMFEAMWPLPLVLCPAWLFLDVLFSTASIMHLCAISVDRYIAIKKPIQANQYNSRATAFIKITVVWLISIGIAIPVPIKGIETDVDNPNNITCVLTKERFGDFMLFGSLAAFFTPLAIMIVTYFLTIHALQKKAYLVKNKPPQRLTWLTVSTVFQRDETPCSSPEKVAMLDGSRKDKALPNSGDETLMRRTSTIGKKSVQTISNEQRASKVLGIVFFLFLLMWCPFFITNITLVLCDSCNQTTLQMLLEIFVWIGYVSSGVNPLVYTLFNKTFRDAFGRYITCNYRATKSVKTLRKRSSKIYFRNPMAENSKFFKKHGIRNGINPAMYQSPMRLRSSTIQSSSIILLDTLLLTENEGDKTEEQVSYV
5-HT2A, sequence (P28223 whole entry): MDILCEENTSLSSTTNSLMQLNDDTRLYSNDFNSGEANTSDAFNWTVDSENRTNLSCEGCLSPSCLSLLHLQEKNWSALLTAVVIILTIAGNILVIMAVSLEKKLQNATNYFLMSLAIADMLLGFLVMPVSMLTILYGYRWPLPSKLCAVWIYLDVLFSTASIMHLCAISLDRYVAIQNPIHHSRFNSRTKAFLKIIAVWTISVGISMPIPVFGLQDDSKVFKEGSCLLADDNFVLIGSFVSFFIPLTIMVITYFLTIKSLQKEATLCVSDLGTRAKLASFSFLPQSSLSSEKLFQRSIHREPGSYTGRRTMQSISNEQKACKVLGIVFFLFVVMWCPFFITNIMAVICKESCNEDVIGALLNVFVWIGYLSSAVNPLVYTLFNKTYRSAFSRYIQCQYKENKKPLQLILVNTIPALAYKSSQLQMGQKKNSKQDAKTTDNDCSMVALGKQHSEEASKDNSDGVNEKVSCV

Row | SMILES | Emax, % 5-HT 5-HT2B (5-HT2B; human 5-HT2B in HEK-293 cells) | EC50 (5-HT2B; [1]) [nM] | Emax, % 5-HT 5-HT2A (5-HT2A; [2]) | EC50 (5-HT2A; [3]) [nM] | Emax, % 5-HT 5-HT2C (human 5-HT2C-INI) | EC50 (human 5-HT2C-INI; read-out: EC50, nM 5-HT2C) [nM] | EC50 (5-HT2A) [nM] | EC50 (human 5-HT2C-INI; EC50, nM 5-HT2C) [nM] | EC50 (5-HT2B; [4]) [nM] | EC50 (5-HT2A; [5]) [nM] | EC50 (5-HT2A; EC50, nM 5-HT2A) [nM]
1 | COc1ccc(Cl)c(Cl)c1C1CC1CN (single isomer, unassigned; (+)) [(+)-Example 36, (+)-(2-(2,3-Dichloro-6-methoxyphenyl)cyclopropyl)methanamine] | (46%) % 5-HT | 534 | (76%) % 5-HT | 203 | (98%) % 5-HT | 21 | – | – | – | – | –
2 | COc1cc(F)c(F)cc1C1CC1CN (single isomer, unassigned; (+)) [(+)-Example 40, (+)-(2-(4,5-Difluoro-2-methoxyphenyl)cyclopropyl)methanamine] | (69%) % 5-HT | – | – | 81 | (108%) % 5-HT | – | – | – | – | – | –
3 | C=CCOc1ccc(Cl)c(F)c1C1CC1CN (single isomer, unassigned; (-)) [(−)-Example 32, (−)-(2-(6-(Allyloxy)-3-chloro-2-fluorophenyl)cyclopropyl)methanamine] | (5%) % 5-HT | – | (16%) % 5-HT | – | (87%) % 5-HT | – | 1080 | 165 | – | – | –
4 | COc1ccc(Cl)c(F)c1C1CC1CN (single isomer, unassigned; (-)) [(−)-Example 29, (−)-(2-(3-chloro-2-fluoro-6-methoxyphenyl)cyclopropyl)methanamine] | (64%) % 5-HT | 165 | (86%) % 5-HT | 68 | (93%) % 5-HT | 3.8 | – | – | – | – | –
5 | CCOc1cc(F)c(F)cc1C1CC1CN (single isomer, unassigned; (+)) [(+)-Example 41, (+)-(2-(2-Ethoxy-4,5-difluorophenyl)cyclopropyl)methanamine] | (59%) % 5-HT | – | (69%) % 5-HT | – | (105%) % 5-HT | – | – | 2.9 | 55 | 260 | –
6 | CCCOc1ccc(F)c(F)c1C1CC1CN (single isomer, unassigned; (+)) [(+)-Example 48, (+)-(2-(2,3-Difluoro-6-propoxyphenyl)cyclopropyl)methanamine] | (39%) % 5-HT | – | (18%) % 5-HT | – | (90%) % 5-HT | – | – | 47 | 4220 | 2070 | –
7 | COc1cc(F)c(F)cc1[C@@H]1C[C@H]1CN (single isomer, unassigned) [(−)-Example 40, (−)-(2-(4,5-Difluoro-2-methoxyphenyl)cyclopropyl)methanamine] | (59%) % 5-HT | – | (76%) % 5-HT | – | (104%) % 5-HT | – | – | – | – | 511 | –
8 | COc1ccc(Cl)c(F)c1[C@@H]1C[C@H]1CN (single isomer, unassigned) [(+)-Example 29, (+)-(2-(3-chloro-2-fluoro-6-methoxyphenyl)cyclopropyl)methanamine] | (52%) % 5-HT | – | (85%) % 5-HT | – | (92%) % 5-HT | – | – | 13 | 354 | 212 | –
9 | COc1cc(F)c(Cl)cc1[C@@H]1C[C@H]1CN (single isomer, unassigned) [(+)-Example 1, (+)-(2-(5-Chloro-4-fluoro-2-methoxyphenyl)cyclopropyl)methanamine] | (59%) % 5-HT | – | (93%) % 5-HT | – | (97%) % 5-HT | – | – | 7.6 | 25 | 81 | –
10 | COc1cc(Cl)c(Cl)cc1C1CC1CN (single isomer, unassigned; (-)) [(−)-Example 33, (−)-(2-(4,5-Dichloro-2-methoxyphenyl)cyclopropyl)methanamine] | (16%) % 5-HT | 696 | (75%) % 5-HT | 84 | (89%) % 5-HT | 14 | – | – | – | – | –
11 | CCCOc1cc(F)c(F)cc1C1CC1CN (single isomer, unassigned; (+)) [(+)-Example 43, (+)-(2-(4,5-Difluoro-2-propoxyphenyl)cyclopropyl)methanamine] | (24%) % 5-HT | – | (23%) % 5-HT | – | (93%) % 5-HT | – | – | 26 | 2540 | – | 805
12 | CCOc1ccc(Cl)c(Cl)c1C1CC1CN (single isomer, unassigned; (+)) [(+)-Example 37, (+)-(2-(2,3-Dichloro-6-ethoxyphenyl)cyclopropyl)methanamine] | (61%) % 5-HT | – | (32%) % 5-HT | – | (101%) % 5-HT | – | – | 91 | 1310 | 976 | –
13 | CCOc1cc(F)c(F)cc1C1CC1CN (single isomer, unassigned; (-)) [(−)-Example 41, (−)-(2-(2-Ethoxy-4,5-difluorophenyl)cyclopropyl)methanamine] | (35%) % 5-HT | – | (52%) % 5-HT | – | (103%) % 5-HT | – | – | 33 | 299 | 778 | –
14 | COc1ccc(F)c(Cl)c1C1CC1CN (single isomer, unassigned; (+)) [(+)-Example 50, (+)-(2-(2-Chloro-3-fluoro-6-methoxyphenyl)cyclopropyl)methanamine] | (60%) % 5-HT | – | (77%) % 5-HT | 769 | (88%) % 5-HT | 24 | – | – | – | – | –
15 | CCOc1cc(F)c(Cl)cc1C1CC1CN (single isomer, unassigned; (+)) [(+)-Example 2, (+)-(2-(5-Chloro-2-ethoxy-4-fluorophenyl)cyclopropyl)methanamine] | (82%) % 5-HT | – | (66%) % 5-HT | – | (92%) % 5-HT | – | – | 4.1 | 286 | 194 | –
16 | CCOc1ccc(Cl)c(Cl)c1C1CC1CN (single isomer, unassigned; (-)) [(−)-Example 37, (−)-(2-(2,3-Dichloro-6-ethoxyphenyl)cyclopropyl)methanamine] | (53%) % 5-HT | – | (12%) % 5-HT | – | (104%) % 5-HT | – | – | 30 | 6830 | 625 | –
17 | CCOc1ccc(Cl)cc1C1CC1CN (single isomer, unassigned; (+)) [(+)-Example 11, (+)-(2-(5-Chloro-2-ethoxyphenyl)cyclopropyl)methanamine] | (45%) % 5-HT | – | (49%) % 5-HT | – | (91%) % 5-HT | – | – | 13 | 86 | 1210 | –
18 | CCOc1ccc(Cl)c(F)c1C1CC1CN (single isomer, unassigned; (+)) [(+)-Example 30, (+)-(2-(3-Chloro-6-ethoxy-2-fluorophenyl)cyclopropyl)methanamine] | (36%) % 5-HT | – | (53%) % 5-HT | – | (89%) % 5-HT | – | – | 28 | 900 | 820 | –
19 | C=CCOc1ccc(Cl)c(Cl)c1C1CC1CN (single isomer, unassigned; (-)) [(−)-Example 39] | (99%) % 5-HT | 3960 | (32%) % 5-HT | 426 | (93%) % 5-HT | 108 | – | – | – | – | –
20 | COc1ccc(Cl)c(Cl)c1C1CC1CN (single isomer, unassigned; (-)) [(−)-Example 36, (−)-(2-(2,3-Dichloro-6-methoxyphenyl)cyclopropyl)methanamine] | (62%) % 5-HT | 51 | (88%) % 5-HT | 38 | (104%) % 5-HT | 0.95 | – | – | – | – | –
21 | C=CCOc1ccc(Cl)c(F)c1C1CC1CN (single isomer, unassigned; (+)) [(+)-Example 32, (+)-(2-(6-(Allyloxy)-3-chloro-2-fluorophenyl)cyclopropyl)methanamine] | (69%) % 5-HT | – | (12%) % 5-HT | – | (90%) % 5-HT | – | – | 116 | 6980 | – | –
